# Experimental data: publication PMC10108266, “Pharmacokinetic characteristics of golidocitinib, a highly selective JAK1 inhibitor, in healthy adult participants” (Frontiers in Immunology, 2023)
# Columns and labels:
# [1] = Safety (TEAEs), JACKPOT2 SAD cohorts; assay type: in vivo, human; settings: n = 4
# Excerpt: (§1) Safety assessments included monitoring of adverse events/serious adverse events, clinical safety laboratory tests (clinical chemistry, hematology, coagulation, and urinalysis tests), 12-lead ECG, vital signs (blood pressure, pulse rate, and respiratory rate), and pulmonary function. All adverse events were coded using the Medical Dictionary for Regulatory Activities (MedDRA), version 22.0. The CTCAE 5.0 was used to define the intensity of AEs.
# Solubility in vitro = assay type: physicochemical
# [2] = Overall safety and tolerability, JACKPOT2 and JACKPOT3; assay type: in vivo, human
# Excerpt: as §1
# The safety monitoring for both JACKPOT2 and JACKPOT3 was similar, included monitoring of adverse events/serious adverse events, clinical safety laboratory tests (clinical chemistry, hematology, coagulation, and urinalysis tests), 12-lead ECG, vital signs (blood pressure, pulse rate, and respiratory rate), and pulmonary function.
# [3] = design: method as in JACKPOT5, NCT04225208; settings: concluded from metabolic profile in human, radiolabeled mass balance study in 8 healthy participants ref JACKPOT5, NCT04225208; cited from earlier work
smiles,measurement,setting,value
"COc1nn(C)cc1Nc1nccc(-c2c[nH]c3c(NC(=O)[C@@H](C)N4CCN(C)CC4)cccc23)n1 [golidocitinib, (2R)-N-[3-[2-[(3-Methoxy-1-methyl-pyrazol-4-yl)amino]pyrimidin-4-yl]-1H-indol-7-yl]-2-(4-methylpiperazin-1-yl)propenamide]",ALT Increased,[1]; 5 mg single dose,0 n (%)
same,AST Increased,[1]; 5 mg single dose,0 n (%)
same,Anemia,[1]; 5 mg single dose,1 (25.0%) n (%)
same,Blood and Lymphatic System Disorders,[1]; 5 mg single dose,2 (50.0%) n (%)
same,Chest Discomfort,[1]; 5 mg single dose,0 n (%)
same,Dyspnea,[1]; 5 mg single dose,0 n (%)
same,Eosinophilia,[1]; 5 mg single dose,2 (50.0%) n (%)
same,General Disorders and Administration Site Conditions,[1]; 5 mg single dose,0 n (%)
same,Investigations,[1]; 5 mg single dose,0 n (%)
same,N-Terminal Pro-BNP,[1]; 5 mg single dose,0 n (%)
same,Nasal Congestion,[1]; 5 mg single dose,1 (25.0%) n (%)
same,Neutropenia,[1]; 5 mg single dose,0 n (%)
same,Oropharyngeal Pain,[1]; 5 mg single dose,1 (25.0%) n (%)
same,"Respiratory, Thoracic and Mediastinal Disorders",[1]; 5 mg single dose,2 (50.0%) n (%)
same,Subjects with at least one TEAE,[1]; 5 mg single dose,2 (50.0%) n (%)
same,Thrombocytosis,[1]; 5 mg single dose,0 n (%)
same,ALT Increased,[1]; 20 mg single dose,0 n (%)
same,AST Increased,[1]; 20 mg single dose,0 n (%)
same,Anemia,[1]; 20 mg single dose,0 n (%)
same,Blood and Lymphatic System Disorders,[1]; 20 mg single dose,2 (50.0%) n (%)
same,Chest Discomfort,[1]; 20 mg single dose,0 n (%)
same,Dyspnea,[1]; 20 mg single dose,0 n (%)
same,Eosinophilia,[1]; 20 mg single dose,0 n (%)
same,General Disorders and Administration Site Conditions,[1]; 20 mg single dose,0 n (%)
same,Investigations,[1]; 20 mg single dose,0 n (%)
same,N-Terminal Pro-BNP,[1]; 20 mg single dose,0 n (%)
same,Nasal Congestion,[1]; 20 mg single dose,0 n (%)
same,Neutropenia,[1]; 20 mg single dose,1 (25.0%) n (%)
same,Oropharyngeal Pain,[1]; 20 mg single dose,0 n (%)
same,"Respiratory, Thoracic and Mediastinal Disorders",[1]; 20 mg single dose,0 n (%)
same,Subjects with at least one TEAE,[1]; 20 mg single dose,2 (50.0%) n (%)
same,Thrombocytosis,[1]; 20 mg single dose,1 (25.0%) n (%)
same,ALT Increased,[1]; 50 mg single dose,0 n (%)
same,AST Increased,[1]; 50 mg single dose,0 n (%)
same,Anemia,[1]; 50 mg single dose,0 n (%)
same,Blood and Lymphatic System Disorders,[1]; 50 mg single dose,0 n (%)
same,Chest Discomfort,[1]; 50 mg single dose,0 n (%)
same,Dyspnea,[1]; 50 mg single dose,0 n (%)
same,Eosinophilia,[1]; 50 mg single dose,0 n (%)
same,General Disorders and Administration Site Conditions,[1]; 50 mg single dose,0 n (%)
same,Investigations,[1]; 50 mg single dose,1 (25.0%) n (%)
same,N-Terminal Pro-BNP,[1]; 50 mg single dose,1 (25.0%) n (%)
same,Nasal Congestion,[1]; 50 mg single dose,0 n (%)
same,Neutropenia,[1]; 50 mg single dose,0 n (%)
same,Oropharyngeal Pain,[1]; 50 mg single dose,0 n (%)
same,"Respiratory, Thoracic and Mediastinal Disorders",[1]; 50 mg single dose,0 n (%)
same,Subjects with at least one TEAE,[1]; 50 mg single dose,1 (25.0%) n (%)
same,Thrombocytosis,[1]; 50 mg single dose,0 n (%)
same,ALT Increased,[1]; 100 mg single dose,0 n (%)
same,AST Increased,[1]; 100 mg single dose,0 n (%)
same,Anemia,[1]; 100 mg single dose,0 n (%)
same,Blood and Lymphatic System Disorders,[1]; 100 mg single dose,1 (25.0%) n (%)
same,Chest Discomfort,[1]; 100 mg single dose,1 (25.0%) n (%)
same,Dyspnea,[1]; 100 mg single dose,0 n (%)
same,Eosinophilia,[1]; 100 mg single dose,0 n (%)
same,General Disorders and Administration Site Conditions,[1]; 100 mg single dose,1 (25.0%) n (%)
same,Investigations,[1]; 100 mg single dose,0 n (%)
same,N-Terminal Pro-BNP,[1]; 100 mg single dose,0 n (%)
same,Nasal Congestion,[1]; 100 mg single dose,0 n (%)
same,Neutropenia,[1]; 100 mg single dose,0 n (%)
same,Oropharyngeal Pain,[1]; 100 mg single dose,0 n (%)
same,"Respiratory, Thoracic and Mediastinal Disorders",[1]; 100 mg single dose,0 n (%)
same,Subjects with at least one TEAE,[1]; 100 mg single dose,1 (25.0%) n (%)
same,Thrombocytosis,[1]; 100 mg single dose,1 (25.0%) n (%)
same,ALT Increased,[1]; 150 mg single dose,0 n (%)
same,AST Increased,[1]; 150 mg single dose,0 n (%)
same,Anemia,[1]; 150 mg single dose,0 n (%)
same,Blood and Lymphatic System Disorders,[1]; 150 mg single dose,0 n (%)
same,Chest Discomfort,[1]; 150 mg single dose,0 n (%)
same,Dyspnea,[1]; 150 mg single dose,0 n (%)
same,Eosinophilia,[1]; 150 mg single dose,0 n (%)
same,General Disorders and Administration Site Conditions,[1]; 150 mg single dose,0 n (%)
same,Investigations,[1]; 150 mg single dose,0 n (%)
same,N-Terminal Pro-BNP,[1]; 150 mg single dose,0 n (%)
same,Nasal Congestion,[1]; 150 mg single dose,0 n (%)
same,Neutropenia,[1]; 150 mg single dose,0 n (%)
same,Oropharyngeal Pain,[1]; 150 mg single dose,0 n (%)
same,"Respiratory, Thoracic and Mediastinal Disorders",[1]; 150 mg single dose,0 n (%)
same,Subjects with at least one TEAE,[1]; 150 mg single dose,0 n (%)
same,Thrombocytosis,[1]; 150 mg single dose,0 n (%)
same,solubility,Solubility in vitro,high solubility
same,tolerability,"[2]; healthy participants, 5 mg to 150 mg single dose, 25 mg to 100 mg multiple dose",well-tolerated
same,serious adverse events,[2]; in vivo,No serious adverse events were reported
same,CTCAE grade 3 or higher drug-related TEAE,[2]; investigators' assessment,no CTCAE grade 3 or higher drug-related TEAE was reported
same,oral bioavailability,[3],> 80%
